# According to ChEMBL document CHEMBL3137667, “[Drug-induced liver injury; fourteenth updated edition of the bibliographic database of liver injuries and related drugs]” (Gastroenterol Clin Biol, 2004):
# Experiments:
# [1] = human
# [2] = Highest frequency of acute liver toxicity observed during clinical trials, expressed as a percentage. [column '% AIGUE' in source]; settings: human
# [3] = human; remark: listed apart in the source
# [4] = human; remark: listed apart in the source
# [5] = human; remark: listed apart in the source
# [6] = human; remark: listed apart in the source
# [7] = human, serum, 4383 h
# [8] = human; remark: listed apart in the source
# [9] = human, serum
# [10] = Highest frequency of moderate liver toxicity observed during clinical trials, expressed as a percentage. [column '% BIOL' in source]; settings: human
# [11] = human; remark: listed apart in the source
# [12] = human; remark: listed apart in the source
# [13] = human, serum; remark: listed apart in the source
# [14] = human; remark: listed apart in the source
# 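Throughout, for Hepatotoxicity (association with vascular disease): count of indexed literature references reporting vascular liver injury in humans, e.g. peliosis hepatitis, hepatic veno-occlusive disease or Budd-Chiari syndrome.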
# 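Throughout, for Hepatotoxicity (benign tumour): value is a count of indexed literature references citing a benign tumour confirmed by histopathology.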
# 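Throughout, for Hepatotoxicity (choleostasis): human cholestatic liver injury, shown by histopathology or by peak ALT or AST elevation over alkaline phosphatase ratio below 2, value counts indexed literature reports.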
# 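Throughout, for Hepatotoxicity (chronic liver disease): chronic liver injury confirmed by histopathology or persistently raised serum aminotransferase activity beyond 6 months, value given as the count of indexed literature references.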
# 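Throughout, for Hepatotoxicity (cirrhosis): value is a count of indexed literature references reporting cirrhosis confirmed by histopathology.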
# 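Throughout, for Hepatotoxicity (cytolytic): human cytolytic liver injury, shown by histopathology or by a ratio above 5 of peak ALT or AST elevation to alkaline phosphatase elevation, value counts indexed references.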
# 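Throughout, for Hepatotoxicity (granulomatous hepatitis): value is a count of indexed literature references reporting granulomatous liver disease confirmed by histopathology.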
# 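Throughout, for Hepatotoxicity (malignant tumour): malignant tumour confirmed by histopathology, value gives the count of indexed literature references reporting it.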
# 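Throughout, for Hepatotoxicity (severe hepatitis): human clinical data: severe hepatitis, meaning potentially life-threatening liver failure or clinically observed cases, the value counts how many indexed literature references report it.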
# 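Throughout, for Hepatotoxicity (steatosis): steatosis confirmed by histopathology, value is the count of indexed references.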
Compound,Hepatotoxicity (benign tumour) [1],Hepatotoxicity (acute) [2],Hepatotoxicity (association with vascular disease) [3],Hepatotoxicity (severe hepatitis) [4],Hepatotoxicity (steatosis) [5],Hepatotoxicity (choleostasis) [6],Hepatotoxicity (chronic liver disease) [7],Hepatotoxicity (malignant tumour) [8],Hepatotoxicity (moderate) [9],Hepatotoxicity (moderate) [10],Hepatotoxicity (cirrhosis) [11],Hepatotoxicity (granulomatous hepatitis) [12],Hepatotoxicity (acute) [13],Hepatotoxicity (cytolytic) [14],Hepatotoxicity (acute) ([2]; Liver),Hepatotoxicity (severe hepatitis) ([4]; Liver),Hepatotoxicity (choleostasis) ([6]; Liver),Hepatotoxicity (moderate) ([10]; Liver),Hepatotoxicity (granulomatous hepatitis) ([12]; Liver),Hepatotoxicity (cytolytic) ([14]; Liver)
CC(C)C[C@H](NC(=O)[C@H](CCCCN)NC(=O)CNC(=O)[C@H](CC(C)C)NC(=O)[C@@H](NC(=O)[C@@H]1CSSC[C@H](N)C(=O)N[C@@H](CO)C(=O)N[C@@H](CC(N)=O)C(=O)N[C@@H](CC(C)C)C(=O)N[C@@H](CO)C(=O)N[C@@H]([C@@H](C)O)C(=O)N1)C(C)C)C(=O)N[C@@H](CO)C(=O)N[C@@H](CCC(N)=O)C(=O)N[C@@H](CCC(=O)O)C(=O)N[C@@H](CC(C)C)C(=O)N[C@@H](Cc1c[nH]cn1)C(=O)N[C@@H](CCCCN)C(=O)N[C@@H](CC(C)C)C(=O)N[C@@H](CCC(N)=O)C(=O)N[C@H](C(=O)N[C@@H](Cc1ccc(O)cc1)C(=O)N1CCC[C@H]1C(=O)N[C@@H](CCCNC(=N)N)C(=O)N[C@H](C(=O)N[C@@H](CC(N)=O)C(=O)N[C@H](C(=O)NCC(=O)N[C@@H](CO)C(=O)NCC(=O)N[C@H](C(=O)N1CCC[C@H]1C(N)=O)[C@@H](C)O)[C@@H](C)O)[C@@H](C)O)[C@@H](C)O [CALCITONIN SALMON],0,0%,0,0,0,0,0,0,1,3.1%,0,0,0,0,–,–,–,–,–,–
COLISTIN,0,0%,0,0,0,0,0,0,1,0%,0,0,0,0,–,–,–,–,–,–
CC(C)C[C@H](NC(=O)[C@@H](O)[C@H](N)Cc1ccccc1)C(=O)O [UBENIMEX],0,0%,0,0,0,0,0,0,1,2.4%,0,0,0,0,–,–,–,–,–,–
CCN(CC)C(=O)N1CCN(C)CC1 [DIETHYLCARBAMAZINE],0,0%,0,0,0,0,0,0,1,0%,0,0,0,0,–,–,–,–,–,–
CO/N=C(\C(=O)N[C@@H]1C(=O)N2C(C(=O)O)=CCS[C@H]12)c1csc(N)n1 [CEFTIZOXIME],0,1.4%,0,0,0,1,0,0,32,35%,0,0,4,1,–,–,–,–,–,–
ADALIMUMAB,0,0%,0,0,0,0,0,0,1,12.1%,0,0,0,0,–,–,–,–,–,–
CC(=O)NCCCCCCNC(C)=O [HEXAMETHYLENEBISACETAMIDE],0,0%,0,0,0,0,0,0,0,0%,0,0,1,1,–,–,–,–,–,–
NC(CO)(CO)CO [TROMETHAMINE],0,–,0,–,0,–,0,0,0,–,0,–,2,–,0%,2,0,0%,0,2
CC1CCN(CCCC(=O)c2ccc(F)cc2)CC1 [MELPERONE],0,0%,0,0,0,0,0,0,2,12%,0,0,0,0,–,–,–,–,–,–
CCNNC(=O)[C@@H]1[C@H](c2cc(OC)c(OC)c(OC)c2)c2cc3c(cc2[C@H](O)[C@H]1CO)OCO3 [MITOPODOZIDE],0,0%,0,0,0,0,0,0,1,1.3%,0,0,0,0,–,–,–,–,–,–
C(=N\NC1=NCCN1)/c1c2ccccc2c(/C=N/NC2=NCCN2)c2ccccc12 [BISANTRENE],0,0%,0,0,0,1,0,0,4,49%,0,0,1,0,–,–,–,–,–,–
BEMIPARIN SODIUM,0,0%,0,0,0,0,0,0,1,0%,0,0,0,0,–,–,–,–,–,–
GALLIUM,0,21.4%,0,0,0,1,0,0,1,28.6%,0,0,1,0,–,–,–,–,–,–
CCC(C)(C)NCC(O)COc1ccccc1C(=O)CCc1ccccc1 (stereo not given) [DIPRAFENONE],0,1.6%,0,0,0,1,0,0,3,3.7%,0,0,1,0,–,–,–,–,–,–
CC(=O)[C@@]1(O)CC[C@H]2[C@@H]3CCC4=CC(=O)CC[C@]4(C)[C@H]3CC[C@@]21C [HYDROXYPROGESTERONE],0,0%,0,0,0,1,0,0,0,0%,0,0,1,0,–,–,–,–,–,–
